Values of other authors as cited in patent US20240245680A1, “Methods of Treating Retinal Vasculopathies” (Unity Biotechnology, Inc., priority 2021, published 2024).
pIC50: −log10 of the molar value.

Key:
glutaminase C (GAC) = molecular target: T1, glutaminase C (GAC) (Homo sapiens, UniProt O94925); details: cited from earlier work
T1 sequence (O94925 55-598 isoform O94925-3 limits assumed): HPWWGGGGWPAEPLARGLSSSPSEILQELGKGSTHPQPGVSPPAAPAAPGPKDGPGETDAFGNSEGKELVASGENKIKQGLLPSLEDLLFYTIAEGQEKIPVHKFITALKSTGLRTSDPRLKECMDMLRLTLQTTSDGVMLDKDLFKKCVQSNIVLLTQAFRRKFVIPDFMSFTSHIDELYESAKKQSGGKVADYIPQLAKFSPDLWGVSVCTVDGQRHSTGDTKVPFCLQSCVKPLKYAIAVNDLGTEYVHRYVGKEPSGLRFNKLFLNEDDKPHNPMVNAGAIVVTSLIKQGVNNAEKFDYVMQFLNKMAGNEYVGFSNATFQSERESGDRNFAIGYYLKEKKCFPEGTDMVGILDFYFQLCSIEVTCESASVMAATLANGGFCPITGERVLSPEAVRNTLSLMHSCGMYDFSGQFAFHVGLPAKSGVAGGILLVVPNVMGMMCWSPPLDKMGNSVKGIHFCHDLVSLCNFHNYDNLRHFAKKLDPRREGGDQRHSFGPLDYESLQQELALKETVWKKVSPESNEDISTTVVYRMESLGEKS

GLS2 = molecular target: T2, GLS2 (Homo sapiens, UniProt Q9UI32); details: cited from earlier work
T2 sequence (Q9UI32 15-602): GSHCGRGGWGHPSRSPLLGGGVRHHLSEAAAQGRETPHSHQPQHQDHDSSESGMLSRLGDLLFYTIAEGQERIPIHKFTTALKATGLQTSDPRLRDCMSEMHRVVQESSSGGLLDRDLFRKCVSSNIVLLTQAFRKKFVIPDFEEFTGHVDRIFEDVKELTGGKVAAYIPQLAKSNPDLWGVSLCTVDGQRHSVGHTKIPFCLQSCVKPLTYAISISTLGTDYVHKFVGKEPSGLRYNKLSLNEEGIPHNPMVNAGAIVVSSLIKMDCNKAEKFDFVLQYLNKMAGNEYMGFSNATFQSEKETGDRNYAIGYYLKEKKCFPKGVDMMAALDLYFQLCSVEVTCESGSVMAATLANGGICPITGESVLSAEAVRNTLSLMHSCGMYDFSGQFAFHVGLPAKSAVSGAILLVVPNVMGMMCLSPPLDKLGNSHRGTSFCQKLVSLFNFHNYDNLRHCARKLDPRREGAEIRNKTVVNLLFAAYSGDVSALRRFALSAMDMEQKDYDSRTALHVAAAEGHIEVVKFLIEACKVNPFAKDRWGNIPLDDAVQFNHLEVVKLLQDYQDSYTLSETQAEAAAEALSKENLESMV

Compound: O=C(Cc1ccccc1)Nc1nnc(NC2CCN(c3nnc(NC(=O)Cc4ccccc4)s3)CC2)s1 [UPGL00004]
- pIC50 (glutaminase C (GAC)): 7.54
- selectivity for GAC over GLS2 (GLS2): high selectivity
